The values that follow are results of earlier work, collected in patent US20060099230A1, “Novel formulations of eprosartan with enhanced bioavailability” (priority 2004, published 2006).

The conditions of this data set: for bioavailability (mean absolute / oral): conventional formulation, dose not stated.

Structures can show the parent of a compound that is named as a salt.

For the compound `CCCCc1ncc(/C=C(\Cc2cccs2)C(=O)O)n1Cc1ccc(C(=O)O)cc1` [eprosartan mesylate], the “bioavailability (mean absolute / oral)” value is given as 13%.
As for `CCCCc1ncc(/C=C(\Cc2cccs2)C(=O)O)n1Cc1ccc(C(=O)O)cc1` [eprosartan, (E)-α-[2-n-butyl-1-[(4-carboxyphenyl)methyl]-1H-imidazol-5-yl]methylene-2-thiophenepropionic acid], the “bioavailability (mean absolute / oral)” value was 13%. Moreover, under “administered with food”, the “effect of food on absorption” value was “delays absorption”. The accumulation result (chronic use) is reported as “does not significantly accumulate”. Moreover, the absolute bioavailability result (following a 300 mg oral dose) was “approximately 13%”. For the same compound, the “dose proportionality of plasma concentrations” value (over the 100 mg to 800 mg dose range) is recorded as “slightly less than dose-proportional”.
